Assay results as given in US10316323B2, “Microorganisms engineered to use unconventional sources of nitrogen” (priority 2013, dated 2019).

Tested on: cyanamide
Assay: Utilization of cyanamide in rich YPD medium by S. cerevisiae strains
Format: cell-based
Details: 10 mM cyanamide in YPD medium
Procedure: Optical density of NS100 and NS101 grown in rich YPD medium with 100 μg/mL hydgromycin and with and without 10 mM cyanamide. NS100 and NS101 were grown overnight in YNB medium, and inoculated at 3.33% v/v. […] Data are averages of 3 replicate wells in a 96 well plate; 150 μL per well. 30° C., YPD medium or YPD medium with 10 mM cyanamide. Inoculation was with 5 μL of culture pregrown for 24 hrs in the YNB medium with urea as nitrogen source.

N#CN [cyanamide]
effect of cyanamide on microbial growth: act as a deterrent for microbial growth
